How the values were obtained:
bedstraw = experiment: Test B pre/postemergence bedstraw; format: in vivo, Galium aparine
Outline: (§1)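 Response is a visual 0-to-10 score relative to untreated plants, where 0 means no effect and 10 means complete control, taken twelve to sixteen days after application. Treatments went onto soil at planting and onto foliage of 1- to 4-leaf plants, using a surfactant-containing non-phytotoxic solvent.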

blackgrass = experiment: Test B pre/postemergence blackgrass; format: in vivo, Alopecurus myosuroides
Outline: as §1

surinam grass = experiment: Test B pre/postemergence surinam grass; format: in vivo, Brachiaria decumbens
Outline: as §1

cocklebur = experiment: Test B pre/postemergence cocklebur; format: in vivo, Xanthium strumarium
Outline: as §1

corn = experiment: Test B pre/postemergence corn; format: in vivo, Zea mays
Outline: as §1

crabgrass = experiment: Test B pre/postemergence crabgrass; format: in vivo, Digitaria sanguinalis
Outline: as §1

giant foxtail = experiment: Test B pre/postemergence giant foxtail; format: in vivo, Setaria faberii
Outline: as §1

morningglory = experiment: Test B pre/postemergence morningglory; format: in vivo, Ipomoea hederacea
Outline: as §1

pigweed = experiment: Test B pre/postemergence pigweed; format: in vivo, Amaranthus retroflexus
Outline: as §1

rape = experiment: Test B pre/postemergence rape; format: in vivo, Brassica napus
Outline: as §1

soybean = experiment: Test B pre/postemergence soybean; format: in vivo, Glycine max
Outline: as §1

sugar beet = experiment: Test B pre/postemergence sugar beet; format: in vivo, Beta vulgaris
Outline: as §1

velvetleaf = experiment: Test B pre/postemergence velvetleaf; format: in vivo, Abutilon theophrasti
Outline: as §1

wheat = experiment: Test B pre/postemergence wheat; format: in vivo, Triticum aestivum
Outline: as §1

wild oat = experiment: Test B pre/postemergence wild oat; format: in vivo, Avena fatua
Outline: as §1

purple nutsedge = experiment: Test B pre/postemergence purple nutsedge; format: in vivo, Cyperus rotundus
Outline: as §1

[1] = Postemergence, Rate 125 g/ha, scale of 0 to 10 where 0 is no effect and 10 is complete control
[2] = Preemergence, Rate 125 g/ha, scale of 0 to 10 where 0 is no effect and 10 is complete control
[3] = Preemergence, Rate 250 g/ha, scale 0 (no effect) to 10 (complete control)
[4] = Rate 62 g/ha, Preemergence, scale 0 to 10
[5] = Rate 250 g/ha, Postemergence, scale 0 to 10, 0 is no effect, 10 is complete control
[6] = Rate 500 g/ha, Postemergence, scale 0 to 10, 0 is no effect, 10 is complete control
[7] = Rate 500 g/ha, Preemergence, scale 0 to 10 (0 no effect, 10 complete control)
[8] = Postemergence, Rate 62 g/ha, scale 0 to 10, 0 is no effect, 10 is complete control

CC(C)N(C(=O)n1oc(=O)n(CCN(C)C(=O)c2ccccc2)c1=O)c1ccccc1 [Compound 761]
7: Morningglory plant response rating (morningglory; [5])
9: Giant foxtail plant response rating (giant foxtail; [7])
5: Crabgrass plant response rating (crabgrass; [3])
2: Plant response rating, Soybean (soybean; [8]) | Plant response rating, Sugarbeets (sugar beet; [8])
8: Giant foxtail plant response rating (giant foxtail; [3])
6: Morningglory plant response rating (morningglory; [1]) | Redroot pigweed plant response rating (pigweed; [5]) | Redroot pigweed plant response rating (pigweed; [6]) | Sugarbeets plant response rating (sugar beet; [6])
3: Bedstraw plant response rating (bedstraw; [6]) | B. signalgrass plant response rating (surinam grass; [5]) | B. signalgrass plant response rating (surinam grass; [6]) | B. signalgrass plant response rating (surinam grass; [7]) | Plant response rating, Crabgrass (crabgrass; [2]) | Crabgrass plant response rating (crabgrass; [4]) | Crabgrass plant response rating (crabgrass; [7]) | Giant foxtail plant response rating (giant foxtail; [6]) | Soybean plant response rating (soybean; [5]) | Soybean plant response rating (soybean; [6]) | Sugarbeets plant response rating (sugar beet; [5])
0: Bedstraw plant response rating (bedstraw; [1]) | Plant response rating, Bedstraw (bedstraw; [2]) | Bedstraw plant response rating (bedstraw; [3]) | Bedstraw plant response rating (bedstraw; [4]) | Bedstraw plant response rating (bedstraw; [5]) | Bedstraw plant response rating (bedstraw; [7]) | Plant response rating, Blackgrass (blackgrass; [8]) | Blackgrass plant response rating (blackgrass; [1]) | Plant response rating, Blackgrass (blackgrass; [2]) | Blackgrass plant response rating (blackgrass; [3]) | Blackgrass plant response rating (blackgrass; [4]) | Blackgrass plant response rating (blackgrass; [5]) | Blackgrass plant response rating (blackgrass; [6]) | Blackgrass plant response rating (blackgrass; [7]) | Plant response rating, B. signalgrass (surinam grass; [8]) | B. signalgrass plant response rating (surinam grass; [1]) | B. signalgrass plant response rating (surinam grass; Preemergence, Rate 62 g/ha, scale of 0 to 10 where 0 is no effect and 10 is complete control) | Plant response rating, B. signalgrass (surinam grass; [2]) | B. signalgrass plant response rating (surinam grass; [3]) | Plant response rating, Cocklebur (cocklebur; [8]) | Cocklebur plant response rating (cocklebur; [1]) | Plant response rating, Cocklebur (cocklebur; [2]) | Cocklebur plant response rating (cocklebur; [3]) | Cocklebur plant response rating (cocklebur; [4]) | Cocklebur plant response rating (cocklebur; [5]) | Cocklebur plant response rating (cocklebur; [6]) | Cocklebur plant response rating (cocklebur; [7]) | Plant response rating, Corn (corn; [8]) | Corn plant response rating (corn; [1]) | Plant response rating, Corn (corn; [2]) | Corn plant response rating (corn; [3]) | Corn plant response rating (corn; [4]) | Corn plant response rating (corn; [5]) | Corn plant response rating (corn; [6]) | Corn plant response rating (corn; [7]) | Crabgrass plant response rating (crabgrass; [5]) | Crabgrass plant response rating (crabgrass; [6]) | Plant response rating, Giant foxtail (giant foxtail; [8]) | Giant foxtail plant response rating (giant foxtail; [1]) | Plant response rating, Giant foxtail (giant foxtail; [2]) | Giant foxtail plant response rating (giant foxtail; [4]) | Plant response rating, Morningglory (morningglory; [8]) | Plant response rating, Morningglory (morningglory; [2]) | Morningglory plant response rating (morningglory; [3]) | Morningglory plant response rating (morningglory; [4]) | Morningglory plant response rating (morningglory; [7]) | Plant response rating, Redroot pigweed (pigweed; [8]) | Plant response rating, Redroot pigweed (pigweed; [2]) | Redroot pigweed plant response rating (pigweed; [3]) | Redroot pigweed plant response rating (pigweed; [4]) | Redroot pigweed plant response rating (pigweed; [7]) | Plant response rating, Rape (rape; [8]) | Rape plant response rating (rape; [1]) | Plant response rating, Rape (rape; [2]) | Rape plant response rating (rape; [3]) | Rape plant response rating (rape; [4]) | Rape plant response rating (rape; [5]) | Rape plant response rating (rape; [6]) | Rape plant response rating (rape; [7]) | Plant response rating, Soybean (soybean; [2]) | Soybean plant response rating (soybean; [3]) | Soybean plant response rating (soybean; [4]) | Soybean plant response rating (soybean; [7]) | Plant response rating, Sugarbeets (sugar beet; [2]) | Sugarbeets plant response rating (sugar beet; [3]) | Sugarbeets plant response rating (sugar beet; [4]) | Sugarbeets plant response rating (sugar beet; [7]) | Plant response rating, Velvetleaf (velvetleaf; [8]) | Plant response rating, Velvetleaf (velvetleaf; [2]) | Velvetleaf plant response rating (velvetleaf; [3]) | Velvetleaf plant response rating (velvetleaf; [4]) | Velvetleaf plant response rating (velvetleaf; [5]) | Velvetleaf plant response rating (velvetleaf; [6]) | Velvetleaf plant response rating (velvetleaf; [7]) | Plant response rating, Wheat (wheat; [8]) | Plant response rating, Wheat (wheat; [2]) | Wheat plant response rating (wheat; [3]) | Wheat plant response rating (wheat; [4]) | Wheat plant response rating (wheat; [5]) | Wheat plant response rating (wheat; [6]) | Wheat plant response rating (wheat; [7]) | Plant response rating, Wild oats (wild oat; [8]) | Plant response rating, Wild oats (wild oat; [2]) | Wild oats plant response rating (wild oat; [3]) | Wild oats plant response rating (wild oat; [4]) | Wild oats plant response rating (wild oat; [5]) | Wild oats plant response rating (wild oat; [6]) | Wild oats plant response rating (wild oat; [7]) | Plant response rating, Nutsedge (purple nutsedge; [8]) | Nutsedge plant response rating (purple nutsedge; [1]) | Plant response rating, Nutsedge (purple nutsedge; [2]) | Nutsedge plant response rating (purple nutsedge; [3]) | Nutsedge plant response rating (purple nutsedge; [4]) | Nutsedge plant response rating (purple nutsedge; [5]) | Nutsedge plant response rating (purple nutsedge; [6]) | Nutsedge plant response rating (purple nutsedge; [7])

— US6737383B1, “Herbicidal oxadiazolidines” (priority 1999, dated 2004)
